Measured values as given in patent US20030152986A1, “Method for sorting antifungal molecules acting on the glucanosyltransferase activity” (Institut Pasteur, priority 1996, published 2003).

T1: 49 kDa enzyme (Aspergillus fumigatus, UniProt B0XT72)
T1 construct: from tissue; host or cells: Aspergillus fumigatus CBS 144-89 mycelium, cell wall autolysate; four ion-exchange steps and one gel filtration
T1 sequence (B0XT72 whole entry, looked up): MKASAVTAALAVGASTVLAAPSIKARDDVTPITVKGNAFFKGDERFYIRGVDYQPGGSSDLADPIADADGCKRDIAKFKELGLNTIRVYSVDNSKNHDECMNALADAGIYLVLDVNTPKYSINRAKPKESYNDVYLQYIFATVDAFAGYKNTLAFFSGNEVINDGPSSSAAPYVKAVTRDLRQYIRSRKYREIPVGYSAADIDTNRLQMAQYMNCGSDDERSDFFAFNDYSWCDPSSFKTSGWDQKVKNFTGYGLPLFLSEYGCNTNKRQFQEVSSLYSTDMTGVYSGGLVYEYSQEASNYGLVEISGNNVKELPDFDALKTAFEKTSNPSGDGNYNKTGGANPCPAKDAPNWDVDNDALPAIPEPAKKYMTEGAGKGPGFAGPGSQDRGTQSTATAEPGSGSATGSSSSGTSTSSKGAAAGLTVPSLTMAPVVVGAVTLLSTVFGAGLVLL


Key:
[1] = biological target: T2, 49 kDa β-(1-3)-glucanosyltransferase (BGT2) (Aspergillus fumigatus, UniProt B0XT72); test: Transferase assay with reduced (^3H-marked) laminarioligosaccharides, products separated by HPAEC; format: biochemical; settings: for activity of the transferase towards the substance as substrate/donor: incubation with 49 kDa transferase, HPAEC analysis of products
T2 construct: from tissue; host or cells: Aspergillus fumigatus CBS 144-89 mycelium, cell wall autolysate; four ion-exchange steps and one gel filtration
Procedure: The enzyme fractions were assayed for transferase activity by incubation in 50 mM Na citrate, pH 5.0 at 37° C. (10 μl volume per assay) with a laminarioligosaccharide reduced with borohydride (8 mM final) of at least size G10. Samples (3 μl) were taken at different times, 50 mM NaOH cooled in ice (47 μl) was added to terminate the reaction, and the mixture was frozen until analyzed by high-performance anion-exchange chromatography (HPAEC). Since the peak intensities detected by Pulsed Electrochemical Detector (PED) varied from day to day, the transferase activity was quantified by use of reduced laminarioligosaccharides marked with ^3H as substrates and measurement of the appearance of the marking in the products after separation by HPAEC chromatography, using the on-line Radiomatic 150TR scintillation rate analysis apparatus (Packard).
Except where otherwise mentioned, the assays for the enzyme characterization studies were performed as above with 0.25 μg of purified transferase.
The samples from the transferase tests were analyzed on a Dionex CarboPac PA1 analytical column (4×250 mm) (with a PA1 reference column) on a Dionex HPAEC-type system with pulsed electrochemical detection (PED-2 cell), fitted with a combination of pH-Ag/AgCl reference electrodes and using a potential of 0.4 V for the first 0.5 s of detection. The oligosaccharides were eluted under the following conditions: flow rate 1 ml/min, buffer A: 50 mM NaOH; buffer B: 500 mM sodium acetate in 50 mM NaOH; gradient 0 to 2 min, 98% A 2% B (isocratic), 2 to 15 min 75% A 25% B (linear), 15 to 45 min 60% A 40% B (linear).
In order to determine the relative reaction rate of the enzymes with laminarioligosaccharides of variable sizes, the 49 kDa enzyme (0.25 μg) was incubated with 8 mM of rG10 to rG15 marked with ^3H and the rate of formation of the marked products was measured. The rate with rG10 (328 nmol.min^−1) was approximately equal to 50% of that with the larger substrates and there was no significant difference between the reaction rates for rG11 to rG15 (648±46 nmol.min^−1.mg protein^−1).
The relative rate of the reaction with the acceptors was determined by using 2 mM of rG11 as donor and 32 mM of reduced acceptor marked with ^3H and measuring the formation of marked transferase product (FIG. 4). Under these conditions, the reaction with rG11 used as acceptor was negligible. The reaction rate increased with an increase in chain length, showing that the 49 kDa enzyme prefers the larger laminarioligosaccharide acceptors.
By using rG11 as substrate, it was impossible to calculate an apparent Km corresponding to the two steps of the reaction. In order to determine a Km for the donor site, we used an acceptor which was not a donor. We used [^3H]-rG7 (1×10^6 cpm) as acceptor at a high concentration (64 mM) with different concentrations of rG11 kept below 8 mM. Under these conditions, the reaction took place with rG11 as donor and rG7 was used rather than rG11 as acceptor, as determined by the absence of formation of the transferase product rG16. The initial reaction rate was determined by measuring the appearance of marked rG12.

49 kDa enzyme = biological target: T1, 49 kDa enzyme; test: Optimum pH and storage stability of the 49 kDa enzyme; format: biochemical
Procedure: FIG. 6 illustrates the effect of pH on the transfer rate. The 49 kDa transferase was incubated with 8 μM of [^3H]-rG11 (1×10^6 cpm). The reaction rates were determined by measuring the quantity of marking formed in the form of the product rG16. The buffers used were: ●, sodium citrate/citric acid; ∘, imidazole/citric acid; x, sodium acetate/acetic acid; [formula], Tris/glycine; ▴, phosphate/NaOH; □, Tris/acetic acid; Δ, glycine/HCl.
The 49 kDa enzyme was tested at different pH values, the storage stability was verified and the activity of the N-glycosylated enzyme was tested. The enzyme was active over a wide range of acid pH, showing an activity of more than 50% of its maximum between pH 2.5 and 6.0.

Row | Molecule | activity of the transferase towards the substance as substrate/donor [1] | further results
1 | OC[C@H]1O[C@@H](O[C@H]2[C@H](O)[C@@H](O)[C@H](O[C@H]3[C@H](O)[C@@H](O)[C@H](O[C@H]4[C@H](O)[C@@H](O)[C@H](O[C@H]5[C@H](O)[C@@H](O)C(O)O[C@@H]5CO)O[C@@H]4CO)O[C@@H]3CO)O[C@@H]2CO)[C@H](O)[C@@H](O)[C@@H]1O (stereo partly shown) [ceflopentaose] | no activity | –
2 | chitohexaose | no activity | –
3 | gentiooligosaccharides | no activity | –
4 | maltoheptaose | no activity | –
5 | reduced laminarihexose [[^3H]-rG6] | – | Transfer rate ([1]; 2 mM rG11 as donor, 32 mM ^3H-marked reduced acceptor, initial rate of formation of transfer product): 387 nmol.min^−1.mg protein^−1
6 | 49 kDa enzyme: β-(1-3)-glucanosyltransferase purified from cell wall autolysate of A. fumigatus, SEQ ID NO 2/3 (protein, listed as Aspergillus fumigatus) chain 1: MKASAVTAALAVGASTVLAAPSIKARDDVTPITVKGNAFFKGDERFYIRGVDYQPGGSSDLADPIADADGCKRDIAKFKELGLNTIRVYSVDNSKNHDECMNTLADAGIYLVLDVNTPKYSINRAKPKESYNDVYLQYIFATVDAFAGYKNTLAFFSGNEVINDGPSSSAAPYVKAVTRDLRQYIRSRKYREIPVGYSAADIDTNRLQMAQYMNCGSDDERSDFFAFNDYSWCDPSSFKTSGWDQKVKNFTGYGLPLFLSEYGCNTNKRQFQEVSSLYSTDMTGVYSGGLVYEYSQEASNYGLVEISGNNVKELPDFDALKTAFEKTSNPSGDGNYNKTGGANPCPAKDAPNWDVDNDALPAIPEPAKKYMTEGAGKGPGFAGPGSQDRGTQSTATAEPGSGSATGSSSSGTSTSSKGAAAGLTVPSLTMAPVVVGAVTLLSTVFGAGLVLL chain 2: DDVTPITVKGNAFFKGDERFYIRGVDYQPGGSSDLADPIADADGCKRDIAKFKELGLNTIRVYSVDNSKNHDECMNTLADAGIYLVLDVNTPKYSINRAKPKESYNDVYLQYIFATVDAFAGYKNTLAFFSGNEVINDGPSSSAAPYVKAVTRDLRQYIRSRKYREIPVGYSAADIDTNRLQMAQYMNCGSDDERSDFFAFNDYSWCDPSSFKTSGWDQKVKNFTGYGLPLFLSEYGCNTNKRQFQEVSSLYSTDMTGVYSGGLVYEYSQEASNYGLVEISGNNVKELPDFDALKTAFEKTSNPSGDGNYNKTGGANPCPAKDAPNWDVDNDALPAIPEPAKKYMTEGAGKGPGFAGPGSQDRGTQSTATAEPGSGSATGSSSSGTSTSSKGAAAGLTVPSLTMAPVVVGAVTLLSTVFGAGLVLL | – | storage stability (49 kDa enzyme; 4° C. in 10 mM citrate buffer pH 5.0 for several weeks, speed-vac dried and re-suspended, or −20° C.): without significant loss of activity; pH optimum (49 kDa enzyme; citrate buffer): about 5.0
